# Reference: PubChem BioAssay AID2060893 (Molecular Pharmacology Branch, DTP, NCI, 2025)
# “And” between values parts separate entries of the source, which are not always exact repeats. Equal entries are not always repeated.
# Tested on: K86415-001-R-J1-PDC complex spheroids, viability
# Experiment: Anticancer human tumor K86415-001-R-J1-PDC patient-derived lung adenocarcinoma cell line growth inhibition [RAS]
# Conditions: compound 0.000316 µM; stronger effect = lower value
# Description: RAS pathway inhibitors in Combinations in Complex Spheroids
# A high-throughput screen of multi-cell type tumor spheroids was designed to identify active combinations of RAS pathway inhibitors and targeted small molecules. Complex spheroids include a stromal component modeled by human endothelial cells (HUVEC) and fibroblasts modeled by human mesenchymal stem cells (MSCs). The concentration ranges selected for each drug and investigational agent were based upon clinically achievable concentrations if the clinical Cmax of the agent was known.
# Compounds. The drugs and investigational agents: abemaciclib (NSC768073), cobimetinib (NSC768068), divarasib (GDC6063, NSC841802), docetaxel (NSC628503), GDC-1971 (RLY-1971, NSC841576), gemcitabine (NSC613327), inavolisib (NSC800729), ipatasertib (NSC767898), KB-0742 (NSC834161), MRTX-1133 (NSC836407), osimertinib (NSC779217), RMC-4630 (NSC839698), RMC-6236 (NSC851965), RMC-6291 (NSC852671), Ro-3306 (NSC812927), sapanisertib (NSC764658), SN-38 (NSC673596), staurosporine (NSC755774), SY5609 (NSC837396), and tovorafenib (DAY101, NSC766906), were obtained from the National Cancer Institute (NCI) Developmental Therapeutics Program Chemical Repository. The FDA-approved anticancer drug set is available from the NCI Developmental Therapeutics Program. […] The stock solutions were prepared in dimethyl sulfoxide (DMSO, Sigma-Aldrich, St. Louis, MO, cat. D2650) at 800-fold the tested concentration and stored at -70 degrees C prior to their use. All drugs and investigational agents were tested over a range starting from a high concentration at or near the clinical Cmax and decreasing in half-log increments. If the clinical Cmax for an agent had not been determined, the highest concentration tested was 10 microM.
# Cell Culture. All cells were maintained in an incubator at 37 degrees C and 5% CO2 with 95% humidity. The PDC lines were cultured according to standard operating procedures established by the NCI PDMR. All PDCs were thawed and cultured in Matrigel-coated flasks prepared with a working solution of 1X Ham's F-12 nutrient mix, without supplementation (Invitrogen, Waltham, MA, cat. 11765054), 100 U/mL penicillin-streptomycin (Invitrogen, cat. 15140122), and 2.5% Matrigel (Corning Inc., Corning, NY, cat. 354248) for the first three passages. The 362531-283-R-J2-PDC and 782815-120-R-J1-PDC lines were cultured in 6C/Colon 1B media, which includes advanced DMEM/F-12 (Thermo Fisher Scientific, cat. 12634028), 10 mM HEPES (Thermo Fisher Scientific, cat. 15630080), 1X GlutaMAX supplement (Thermo Fisher Scientific, cat. 35050061), 0.1 mg/mL primocin (InvivoGen, San Diego, CA, cat. ant-pm-2), 10% defined fetal bovine serum, heat inactivated (HyClone Laboratories Inc., Logan, UT, cat. SH30070.03HI), 50% L-WRN conditioned media (ATCC, cat. CRL-3276), 1.25 mM N-Acetyl-L-cysteine (Sigma-Aldrich, cat. A9165), 10 mM nicotinamide (Sigma-Aldrich, cat. N0636), 1X B-27 supplement (Thermo Fisher Scientific, cat. 17504044), 1X N-2 supplement (Thermo Fisher Scientific, cat. 17502048), 50 ng/mL human EGF (Thermo Fisher Scientific, cat. PHG0311), and 10 microM Y-27632 dihydrochloride (Tocris Bioscience, cat. 1254). The K12877-001-R-J1-PDC line was cultured in 6I media, which includes all 6C/Colon 1B media plus 10 ng/mL human FGF-10 (PeproTech, cat. 100-26), 1 ng/mL human FGF-2 (PeproTech, cat. 100-18B), 1 µM prostaglandin E2 (Tocris Bioscience, cat. 2296), […] hydrocortisone (Sigma-Aldrich, cat. H4001), and […] bovine insulin (Sigma-Aldrich, cat. I6634). The K86415-001-R-J1-PDC line was cultured in 6D media, which includes all 6C/Colon 1B media components minus the L-WRN conditioned media. The 485176-168-R4-J1-PDC was cultured in PANC media, which includes all 6C/Colon 1B media plus 100 ng/mL human FGF-10 (PeproTech, cat. 100-26), 500 nM SB-431542 (Selleckchem, cat. S1067), and 10 nM gastrin (Tocris Bioscience, cat. 3006). […]
# 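Note: spheroids exposed to agents for seven days before readout.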
row,SMILES,"viability, T/C"
1,CC(C)n1nc(-c2ccc3oc(N)nc3c2)c2c(N)ncnc21,108% [middle of 4 runs]

# Same assay, conditions: compound 0.000949 µM; stronger effect = lower value
row,SMILES,"viability, T/C"
1,CC1(C)CCC(Nc2ncc(C(F)(F)F)c(-c3c[nH]c4c(P(C)(C)=O)c(C#N)ccc34)n2)CN1 (stereo unspecified),110% and 123% (2×) and 109%
2,CCc1c2c(nc3ccc(O)cc13)-c1cc3c(c(=O)n1C2)COC(=O)[C@]3(O)CC,102% (2×) and 97.3% and 88.2%
3,CCn1c(-c2cc(N3CCN(C)CC3)cnc2C(C)OC)c2c3cc(ccc31)-c1csc(n1)CC(NC(=O)C1CC1C)C(=O)N1CCCC(N1)C(=O)OCC(C)(C)C2 (stereo unspecified),50.3% [middle of 8 runs]
4,CCn1c(-c2cccnc2C(C)OC)c2c3cc(ccc31)N1CCOC(CC(NC(=O)C(C(C)C)N(C)C(=O)C3(F)CCN(C(=O)C#CC(C)(C)N(C)C)CC3)C(=O)N3CCCC(N3)C(=O)OCC(C)(C)C2)C1 (stereo unspecified),41.9% [middle of 8 runs]

# Same assay, conditions: compound 0.001 µM; stronger effect = lower value
row,SMILES,"viability, T/C"
1,CC(C)n1nc(-c2ccc3oc(N)nc3c2)c2c(N)ncnc21,104% [middle of 4 runs]

# Same assay, conditions: compound 0.003 µM; stronger effect = lower value
row,SMILES,"viability, T/C"
1,CC1(C)CCC(Nc2ncc(C(F)(F)F)c(-c3c[nH]c4c(P(C)(C)=O)c(C#N)ccc34)n2)CN1 (stereo unspecified),120% [middle of 4 runs]
2,CCc1c2c(nc3ccc(O)cc13)-c1cc3c(c(=O)n1C2)COC(=O)[C@]3(O)CC,38.8% [middle of 4 runs]
3,CCn1c(-c2cc(N3CCN(C)CC3)cnc2C(C)OC)c2c3cc(ccc31)-c1csc(n1)CC(NC(=O)C1CC1C)C(=O)N1CCCC(N1)C(=O)OCC(C)(C)C2 (stereo unspecified),22.4% [middle of 8 runs]
4,CCn1c(-c2cccnc2C(C)OC)c2c3cc(ccc31)N1CCOC(CC(NC(=O)C(C(C)C)N(C)C(=O)C3(F)CCN(C(=O)C#CC(C)(C)N(C)C)CC3)C(=O)N3CCCC(N3)C(=O)OCC(C)(C)C2)C1 (stereo unspecified),13.8% [middle of 8 runs]

# Same assay, conditions: compound 0.00316 µM; stronger effect = lower value
row,SMILES,"viability, T/C"
1,C=CC(=O)N1CCN(c2nc(OCC3CCCN3C)nc3c(F)c(-c4nc(N)cc(C)c4C(F)(F)F)c(Cl)cc23)C(C)C1 (stereo unspecified),18.3% [middle of 12 runs]
2,C=CC(=O)Nc1cc(Nc2nccc(-c3cn(C)c4ccccc34)n2)c(OC)cc1N(C)CCN(C)C,105% [middle of 4 runs]
3,CC(C)n1nc(-c2ccc3oc(N)nc3c2)c2c(N)ncnc21,104% [middle of 4 runs]
4,CCN1CCN(Cc2ccc(Nc3ncc(F)c(-c4cc(F)c5nc(C)n(C(C)C)c5c4)n3)nc2)CC1,97.9% [middle of 4 runs]
5,O=C(c1ccc(F)c(F)c1Nc1ccc(I)cc1F)N1CC(O)([C@@H]2CCCCN2)C1,103% [middle of 4 runs]

# Same assay, conditions: compound 0.00949 µM; stronger effect = lower value
row,SMILES,"viability, T/C"
1,CC1(C)CCC(Nc2ncc(C(F)(F)F)c(-c3c[nH]c4c(P(C)(C)=O)c(C#N)ccc34)n2)CN1 (stereo unspecified),75.7% [middle of 4 runs]
2,CCc1c2c(nc3ccc(O)cc13)-c1cc3c(c(=O)n1C2)COC(=O)[C@]3(O)CC,23.2% [middle of 4 runs]
3,CCn1c(-c2cc(N3CCN(C)CC3)cnc2C(C)OC)c2c3cc(ccc31)-c1csc(n1)CC(NC(=O)C1CC1C)C(=O)N1CCCC(N1)C(=O)OCC(C)(C)C2 (stereo unspecified),10.2% [middle of 8 runs]
4,CCn1c(-c2cccnc2C(C)OC)c2c3cc(ccc31)N1CCOC(CC(NC(=O)C(C(C)C)N(C)C(=O)C3(F)CCN(C(=O)C#CC(C)(C)N(C)C)CC3)C(=O)N3CCCC(N3)C(=O)OCC(C)(C)C2)C1 (stereo unspecified),11.6% [middle of 7 runs]

# Same assay, conditions: compound 0.01 µM; stronger effect = lower value
row,SMILES,"viability, T/C"
1,C=CC(=O)N1CCN(c2nc(OCC3CCCN3C)nc3c(F)c(-c4nc(N)cc(C)c4C(F)(F)F)c(Cl)cc23)C(C)C1 (stereo unspecified),13.4% [middle of 12 runs]
2,C=CC(=O)Nc1cc(Nc2nccc(-c3cn(C)c4ccccc34)n2)c(OC)cc1N(C)CCN(C)C,98.8% [middle of 4 runs]
3,CC(C)n1nc(-c2ccc3oc(N)nc3c2)c2c(N)ncnc21,96.1% [middle of 4 runs]
4,CCN1CCN(Cc2ccc(Nc3ncc(F)c(-c4cc(F)c5nc(C)n(C(C)C)c5c4)n3)nc2)CC1,90.2% [middle of 4 runs]
5,O=C(c1ccc(F)c(F)c1Nc1ccc(I)cc1F)N1CC(O)([C@@H]2CCCCN2)C1,90% [middle of 4 runs]

# Same assay, conditions: compound 0.03 µM; stronger effect = lower value
row,SMILES,"viability, T/C"
1,CC1(C)CCC(Nc2ncc(C(F)(F)F)c(-c3c[nH]c4c(P(C)(C)=O)c(C#N)ccc34)n2)CN1 (stereo unspecified),58.1% [middle of 4 runs]
2,CCc1c2c(nc3ccc(O)cc13)-c1cc3c(c(=O)n1C2)COC(=O)[C@]3(O)CC,17.6% [middle of 4 runs]
3,CCn1c(-c2cc(N3CCN(C)CC3)cnc2C(C)OC)c2c3cc(ccc31)-c1csc(n1)CC(NC(=O)C1CC1C)C(=O)N1CCCC(N1)C(=O)OCC(C)(C)C2 (stereo unspecified),6.3% [middle of 8 runs]
4,CCn1c(-c2cccnc2C(C)OC)c2c3cc(ccc31)N1CCOC(CC(NC(=O)C(C(C)C)N(C)C(=O)C3(F)CCN(C(=O)C#CC(C)(C)N(C)C)CC3)C(=O)N3CCCC(N3)C(=O)OCC(C)(C)C2)C1 (stereo unspecified),12.7% [middle of 8 runs]

# Same assay, conditions: compound 0.0316 µM; stronger effect = lower value
row,SMILES,"viability, T/C"
1,C=CC(=O)N1CCN(c2nc(OCC3CCCN3C)nc3c(F)c(-c4nc(N)cc(C)c4C(F)(F)F)c(Cl)cc23)C(C)C1 (stereo unspecified),11.5% [middle of 12 runs]
2,C=CC(=O)Nc1cc(Nc2nccc(-c3cn(C)c4ccccc34)n2)c(OC)cc1N(C)CCN(C)C,101% [middle of 4 runs]
3,CC(C)n1nc(-c2ccc3oc(N)nc3c2)c2c(N)ncnc21,64.5% [middle of 4 runs]
